Assay results as given in PubChem BioAssay (NCI).
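The compound was tested at five concentrations on cells cultured in 96-well plates, with a 48-hour exposure period. TGI marks complete inhibition of growth.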

Columns and labels:
Assay in all cases: NCI-60 cell line screen, 48 h
[1] = tested on: HCT-15 colon
[2] = tested on: MALME-3M melanoma
[3] = tested on: EKVX NSCLC
[4] = tested on: 786-0 renal
[5] = tested on: SK-MEL-5 melanoma
[6] = tested on: SR leukemia
[7] = tested on: COLO 205 colon
[8] = tested on: SNB-75 CNS
[9] = tested on: CAKI-1 renal
[10] = tested on: DLD-1 colon
[11] = tested on: KM20L2 colon
[12] = tested on: OVCAR-3 ovarian
[13] = tested on: A549 NSCLC
[14] = tested on: RXF-631 renal
[15] = tested on: K-562 leukemia
[16] = tested on: IGROV1 ovarian
[17] = tested on: LOX IMVI melanoma
[18] = tested on: SK-MEL-28 melanoma
[19] = tested on: HOP-62 NSCLC
[20] = tested on: M19-MEL melanoma
[21] = tested on: SNB-78 CNS
[22] = tested on: CCRF-CEM leukemia
[23] = tested on: M14 melanoma
[24] = tested on: SN12C renal
[25] = tested on: SF-539 CNS
[26] = tested on: OVCAR-5 ovarian
[27] = tested on: KM12 colon
[28] = tested on: NCI-H460 lung
[29] = tested on: LXFL 529 NSCLC
[30] = tested on: UACC-257 melanoma
[31] = tested on: UACC-62 melanoma
[32] = tested on: ACHN renal
[33] = tested on: DMS 114 small cell lung
[34] = tested on: UO-31 renal
[35] = tested on: HCC-2998 colon
[36] = tested on: MOLT-4 leukemia
[37] = tested on: SW-620 colon
[38] = tested on: SK-MEL-2 melanoma
[39] = tested on: HCT-116 colon
[40] = tested on: NCI-H522 lung
[41] = tested on: SF-295 CNS
[42] = tested on: OVCAR-4 ovarian
[43] = tested on: DMS 273 small cell lung
[44] = tested on: RPMI-8226 leukemia
[45] = tested on: SF-268 CNS
[46] = tested on: NCI-H226 lung
[47] = tested on: HT29 colon
[48] = tested on: NCI-H23 lung
[49] = tested on: OVCAR-8 ovarian
[50] = tested on: SNB-19 CNS
[51] = tested on: U251 CNS
[52] = tested on: RXF 393 renal
[53] = tested on: HL-60(TB) leukemia
[54] = tested on: HOP-92 NSCLC
[55] = tested on: SK-OV-3 ovarian
[56] = tested on: A498 renal
[57] = tested on: TK-10 renal

Structure (SMILES): COc1ccc(C(C2=C(O)CC(C)OC2=O)C2=C(O)CC(C)OC2=O)cc1 (configuration not stated)
- TGI [1]: > 100 µM
- TGI [2]: > 100 µM
- TGI [3]: > 100 µM
- TGI [4]: > 100 µM
- TGI [5]: > 100 µM
- TGI [6]: > 100 µM
- TGI [7]: > 100 µM
- TGI [8]: > 100 µM
- TGI [9]: > 100 µM
- TGI [10]: > 100 µM
- TGI [11]: > 100 µM
- TGI [12]: > 100 µM
- TGI [13]: > 100 µM
- TGI [14]: > 100 µM
- TGI [15]: > 100 µM
- TGI [16]: > 100 µM
- TGI [17]: > 100 µM
- TGI [18]: > 100 µM
- TGI [19]: > 100 µM
- TGI [20]: > 100 µM
- TGI [21]: > 100 µM
- TGI [22]: > 100 µM
- TGI [23]: > 100 µM
- TGI [24]: > 100 µM
- TGI [25]: > 100 µM
- TGI [26]: > 100 µM
- TGI [27]: > 100 µM
- TGI [28]: > 100 µM
- TGI [29]: > 100 µM
- TGI [30]: > 100 µM
- TGI [31]: > 100 µM
- TGI [32]: > 100 µM
- TGI [33]: > 100 µM
- TGI [34]: > 100 µM
- TGI [35]: > 100 µM
- TGI [36]: > 100 µM
- TGI [37]: > 100 µM
- TGI [38]: > 100 µM
- TGI [39]: > 100 µM
- TGI [40]: > 100 µM
- TGI [41]: > 100 µM
- TGI [42]: > 100 µM
- TGI [43]: > 100 µM
- TGI [44]: > 100 µM
- TGI [45]: > 100 µM
- TGI [46]: > 100 µM
- TGI [47]: > 100 µM
- TGI [48]: > 100 µM
- TGI [49]: > 100 µM
- TGI [50]: > 100 µM
- TGI [51]: > 100 µM

Structure (SMILES): COc1ccccc1-c1csc(CCC(N)C(=O)O)n1 (configuration not stated)
- TGI [3]: > 100 µM
- TGI [6]: > 100 µM
- TGI [11]: > 100 µM
- TGI [13]: > 100 µM
- TGI [14]: > 100 µM
- TGI [16]: > 100 µM
- TGI [18]: > 100 µM
- TGI [19]: > 100 µM
- TGI [20]: > 100 µM
- TGI [21]: > 100 µM
- TGI [22]: > 100 µM
- TGI [23]: > 100 µM
- TGI [26]: > 100 µM
- TGI [27]: > 100 µM
- TGI [28]: > 100 µM
- TGI [52]: > 100 µM
- TGI [30]: > 100 µM
- TGI [53]: > 100 µM
- TGI [31]: > 100 µM
- TGI [54]: > 100 µM
- TGI [32]: > 100 µM
- TGI [33]: > 100 µM
- TGI [34]: > 100 µM
- TGI [36]: > 100 µM
- TGI [55]: > 100 µM
- TGI [56]: > 100 µM
- TGI [39]: > 100 µM
- TGI [40]: > 100 µM
- TGI [41]: > 100 µM
- TGI [43]: > 100 µM
- TGI [47]: > 100 µM
- TGI [57]: 75.4 µM
- TGI [48]: > 100 µM
- TGI [49]: > 100 µM
- TGI [50]: > 100 µM
- TGI [51]: > 100 µM
